Laboratory results reported in patent US20120259007A1, “ANTICOAGULANT COMPOUNDS AND THEIR USE” (HAOMA MEDICA LIMITED, priority 2009, published 2012).

What follows are compounds tested on Mice (assay: Observed anticoagulant activity (bleeding) in treated mice). Settings: single injection 15 μg/mouse/day intraperitoneally in 10% ethanol in saline.
Format: in vivo
Description: Mice were treated with one compound of the present invention (4E)-6-(1,4-dihydro-2-methyl-1,4-dioxonaphthalen-3-yl)-4-methylhex-4-enoic acid (VIII) [also called NaQuinate herein] in the form of a single injection (15 μg/mouse/day) administered in 10% ethanol in saline injections intraperitoneally. Control mice received the carrier but not the NaQuinate active component.

Structure (SMILES) | bleeding compared with mice not treated (anticoagulant effect)
CC1=C(C/C=C(\C)CCC(=O)O)C(=O)c2ccccc2C1=O [NaQuinate (VIII), (4E)-6-(1,4-dihydro-2-methyl-1,4-dioxonaphthalen-3-yl)-4-methylhex-4-enoic acid] | bleed out much more profusely

The compounds below were run against T1, recombinant human γ-carboxylase (Homo sapiens, UniProt P38435) (assay: Inhibition of recombinant human gamma-carboxylase (14CO2 incorporation, microsomes from High Five cells)). Settings: in the presence of 220 μM vitamin K1 hydroquinone; compounds reduced to hydroquinone forms; n=1; read-out: IC50 against 220 μM vitamin K1.
T1 construct: made in house; host or cells: Trichoplusia ni High Five cells (microsomes)
T1 sequence (P38435 1-758): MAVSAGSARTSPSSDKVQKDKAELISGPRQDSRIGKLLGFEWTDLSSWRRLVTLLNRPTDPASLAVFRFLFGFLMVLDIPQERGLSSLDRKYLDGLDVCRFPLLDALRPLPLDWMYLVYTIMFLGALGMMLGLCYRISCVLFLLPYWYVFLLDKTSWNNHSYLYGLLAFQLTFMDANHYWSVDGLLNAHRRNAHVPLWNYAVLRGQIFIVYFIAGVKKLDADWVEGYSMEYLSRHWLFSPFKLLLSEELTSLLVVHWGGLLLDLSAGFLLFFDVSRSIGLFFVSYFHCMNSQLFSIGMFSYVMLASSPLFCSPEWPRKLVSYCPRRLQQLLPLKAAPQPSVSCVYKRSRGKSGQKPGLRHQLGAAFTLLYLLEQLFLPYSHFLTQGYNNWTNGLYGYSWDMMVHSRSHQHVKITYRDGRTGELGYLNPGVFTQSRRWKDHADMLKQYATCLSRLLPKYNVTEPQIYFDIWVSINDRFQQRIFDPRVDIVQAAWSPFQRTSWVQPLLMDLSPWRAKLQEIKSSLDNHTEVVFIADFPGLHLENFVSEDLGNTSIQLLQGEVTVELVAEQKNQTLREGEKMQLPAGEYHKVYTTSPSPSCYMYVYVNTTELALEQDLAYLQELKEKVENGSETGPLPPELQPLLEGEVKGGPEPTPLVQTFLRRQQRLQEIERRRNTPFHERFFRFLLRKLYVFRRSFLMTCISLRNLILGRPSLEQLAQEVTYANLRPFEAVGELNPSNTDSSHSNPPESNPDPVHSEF
Format: biochemical
Description: The compounds to be tested were reduced to their hydroquinone forms by the addition of 0.2 M DTT to a solution of the compounds in DMSO (giving a final v/v ratio of 1:3 DTT:DMSO) and overnight incubation in a water bath (37° C.).
In this assay a different microsomal preparation was used than the one described above. This microsomal preparation consists of microsomes prepared from Trichoplusia ni High Five cells that had had the cDNA for the human γ-carboxylase incorporated into their DNA. These microsomes were taken from stores that had been prepared as described by Houben, R. J., D. Jin, et al. (1999). “Osteocalcin binds tightly to the gamma-glutamylcarboxylase at a site distinct from that of the other known vitamin K-dependent proteins.” Biochem J 341 (Pt 2): 265-9.
Standard reaction mixtures contained 5 μl of microsomal preparation, 5 μl of 500 μM decarboxylated osteocalcin (d-OC) (except for the negative control tube), 25 μl of saturated ammonium sulphate solution, 5 μl of 5% PC/CHAPS. In addition to this, 1:3 (v/v) DMSO: 0.2 M DTT was added to the tubes (to take into account the fact that the compounds were dissolved in 1:3 DMSO: 0.2 M DTT) to give a total volume of 40 μl DMSO: 0.2 M DTT per tube. A solution of Buffer D was added to give all final tubes a uniform volume of 125 μl. The experiment was initiated by the addition of 10 μl of a 1:1 (v/v) mixture of vitamin K hydroquinone (final concentration of 220 μM) and NaH^14CO3 (final radioactivity of 5 μCi) to each tube, followed by a range of concentrations of the compounds.

Structure (SMILES) | IC50 [µM]
CC1=CC(=O)c2ccccc2C1=O [Vitamin K3 (III), menadione, reference compound] | 460
COC(=O)CCC(C)=CCC1=C(C)C(=O)c2ccccc2C1=O [NaQuinate-Me (VII)] | 358
CC1=C(C/C=C(\C)C(=O)O)C(=O)c2ccccc2C1=O [KCAT-5C (XIV), (2E)-4-(1,4-dihydro-2-methyl-1,4-dioxonaphthalen-3-yl)-2-methylbut-2-enoic acid] | 340
COC(=O)C(C)CCC1=C(C)C(=O)c2ccccc2C1=O (stereo not shown) [KCAT-5C-Me (XIX)] | 514
CC1=C(C/C=C(\C)CCC(=O)O)C(=O)c2ccccc2C1=O [NaQuinate (VIII), (4E)-6-(1,4-dihydro-2-methyl-1,4-dioxonaphthalen-3-yl)-4-methylhex-4-enoic acid] | 152
COC(=O)CC/C(C)=C/CC1=C(C)C(=O)C(OC)=C(OC)C1=O [QCAT-Me (XVIII)] | 534
